Experimental data reported in US20110009435A1, “HETERO BICYCLIC CARBOXAMIDE DERIVATIVES AND THEIR PHARMACEUTICAL USE AND COMPOSITIONS” (Pfizer, Inc., priority 2007, published 2011).
Where a name gives a salt, the structure may show the parent alone.

Columns and labels:
[1] = target: T1, catalytic domain of human recombinant MMP-3 (Homo sapiens, UniProt P08254); assay: In vitro MMP inhibition assay, MMP-3 catalytic domain (fluorogenic peptide substrate cleavage, Ki); format: biochemical; details: human MMP-3, catalytic domain (CD); read-out: hMMP Ki 03/CD
T1 construct: made in house
Experimental: (§1) Matrix Metalloproteinase inhibitor compounds were analyzed in in vitro MMP Inhibition assays to determine their ability to inhibit the MMP cleavage of peptide substrates. Inhibition constants (Ki) were calculated from the assayed compound-MMP interactions.
(§2) Human recombinant MMP-1, MMP-2, MMP-3, MMP-7, MMP-9, MMP-12, MMP-13, MMP-14 and MMP-15 were used in these assays. The enzymes are prepared following known laboratory procedures. Protocols for the preparation and use of these enzymes are available in the scientific literature. See, e.g., Enzyme Nomenclature (Academic Press, San Diego, Calif., 1992) and the citations therein. See also Frije et al., J. Biol. Chem., 26(24), 16766-73 (1994).
The catalytic domain MMP-3 cDNA may be used to express the catalytic domain enzyme in E. coli inclusion bodies. Then the enzyme is solubilized in urea, purified on a preparative […] reverse phase HPLC column, and refolded in the presence of zinc acetate and purified for use.
The fluorogenic, methoxycoumarin-containing polypeptide substrate Mca-Arg-Pro-Lys-Pro-Val-Glu-Nva-Trp-Arg-Lys(Dnp)-NH2 (Bachem catalog number M-2110) was used as the MMP substrate in the MMP inhibition assays for catalytic domain of human recombinant MMP-3 (which refers to the catalytic domain of stromelysin). Here, “MCA” is 7-methoxycoumarin-4-yl acetyl and “Dpa” is 3-(2,4-dinitrophenyl)-L-2,3-di-aminopropionyl group. In the absence of MMP inhibitory activity, the substrate is cleaved at the Gly-Leu peptide bond. The cleavage separates the highly fluorogenic peptide from the 2,4-dinitrophenyl quencher, resulting in an increase of fluorescent intensity.
For the human MMP-3 assay, dilutions of the inhibitors (or salts thereof) were prepared in 100% DMSO. The stock solutions were diluted in Buffer B (50 mM N-morpholinoethane sulfonate (“MES”), 100 mM NaCl, 10 mM CaCl2, 0.005% polyoxyethylene 23 lauryl ether, pH 6.0)) to obtain solutions with different compound concentrations, i.e., assay solutions with different concentrations of the assayed MMP inhibitory compound in 1% DMSO. The experiment controls contained the same amount of Buffer B/DMSO as the assayed sample, but contained no inhibitor.
(§3) To determine Ki, the inhibitor samples are incubated at room temperature for 1 hr in the presence of enzyme and then 4 μM of appropriate MMP substrate was added, and samples were analyzed on a Tecan SpectraFlour Plus plate reader. The excitation wavelength is 330 nm, and the emission (fluorescence) wavelength is 420 nm. In the absence of MMP inhibitory activity, the substrate is cleaved at the Gly-Leu bond resulting in an increase of relative fluorescence. Inhibition is observed as a reduced rate of increase in relative fluorescence.
The inhibitors are analyzed using a single low enzyme concentration with a single substrate concentration fixed at or below the Km. This protocol is a modification of method by Knight et al., FEBS Lett., 296(3), 263-266 (1992). Apparent inhibitory constants are determined by non-linear regression of reaction velocity as a function of inhibitor and enzyme concentration using Morrison's equation, as described by Kuzmic, Anal. Biochem. 286, 45-50 (2000). Modifications were made in the non-linear regression method to allow a common control reaction rate and effective enzyme concentration to be shared between all dose-response relationships on a given assay plate. Since the substrate concentration was chosen to be at or below the Km, the apparent Ki's from this analysis were reported as Ki's without correction for the influence of substrate.

[2] = target: T2, Human recombinant MMP-13 (Homo sapiens, UniProt P45452); assay: In vitro MMP inhibition assay, MMP-13 (fluorogenic peptide substrate cleavage, Ki); format: biochemical; details: human MMP-13, full length (FL); read-out: hMMP Ki 13/FL
T2 construct: made in house; host or cells: baculovirus expression (insect cells)
Experimental: as §1, §2
The MMP-13 may be obtained as a proenzyme from a full-length cDNA clone using baculovirus expression, as described by V. A. Luckow, “Insect Cell Expression Technology,” Protein Engineering: Principles and Practice, pp. 183-218 (edited by J. L. Cleland et al., Wiley-Liss, Inc., 1996). The expressed proenzyme was first purified over a heparin agarose column, and then over a chelating zinc chloride column. Further details on baculovirus expression systems may be found in, for example, Luckow et al., J. Virol., 67, 4566-79 (1993). See also O'Reilly et al, Baculovirus Expression Vectors: A Laboratory Manual (W. H. Freeman and Co., New York, N.Y., 1992). See also King et al., The Baculovirus Expression System: A Laboratory Guide (Chapman & Hall, London, England, 1992).
All full length MMPs were activated using 4-aminophenylmercuric acetate (“APMA”, Sigma Chemical, St. Louis, Mo.) or trypsin. MMP-9 also was activated using human recombinant MMP-3 following standard cloning and purification techniques.
The fluorogenic, methoxycoumarin-containing polypeptide substrate MCA-ArgProLeuGlyLeuDpaAlaArgGluArgNH2 was used as the MMP substrate in the MMP inhibition assays for human recombinant MMP-1, MMP-2, MMP-7, MMP-9, MMP-12, MMP-13, MMP-14 and MMP-15. Here, “MCA” is 7-methoxycoumarin-4-yl acetyl and “Dpa” is 3-(2,4-dinitrophenyl)-L-2,3-di-aminopropionyl group. In the absence of MMP inhibitory activity, the substrate is cleaved at the Gly-Leu peptide bond. The cleavage separates the highly fluorogenic peptide from the 2,4-dinitrophenyl quencher, resulting in an increase of fluorescent intensity.
For the human MMP-1, MMP-2, MMP-7, MMP-9, MMP-12, MMP-13, MMP-14 and MMP-15 assays, dilutions of the inhibitors (or salts thereof) were prepared in 100% dimethyl sulfoxide (DMSO). The stock solutions were diluted in Buffer A (100 mM Tris-HCl, 100 mM NaCl, 10 mM CaCl2, 0.005% polyoxyethylene 23 lauryl ether, pH 7.5) to obtain solutions with different compound concentrations, i.e., assay solutions with different concentrations of the assayed MMP inhibitory compound in 1% DMSO. The experiment controls contained the same amount of Buffer A/DMSO as the assayed sample, but contained no inhibitor.
as §3
The inhibitors are analyzed using a single low enzyme concentration with a single substrate concentration fixed at or below the Km. This protocol is a modification of method by Knight et al., FEBS Lett., 296(3), 263-266 (1992). Apparent inhibitory constants are determined by non-linear regression of reaction velocity as a function of inhibitor and enzyme concentration using Morrison's equation, as described by Kuzmic, Anal. Biochem. 286, 45-50 (2000). […]

T1 sequence (P08254 100-272 limits assumed): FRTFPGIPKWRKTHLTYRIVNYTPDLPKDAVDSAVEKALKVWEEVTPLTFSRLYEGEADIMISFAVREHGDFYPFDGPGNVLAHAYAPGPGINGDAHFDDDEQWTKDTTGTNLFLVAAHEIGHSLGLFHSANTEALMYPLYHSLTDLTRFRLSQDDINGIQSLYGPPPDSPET

Ki [1] [nM] | Ki [2] [nM] | SMILES
787 | 3.13 | COc1cccc(CNC(=O)c2nc3scc(COCCC4CCN(C(C)=O)CC4)c3c(=O)[nH]2)c1 [Example 28, 5-([2-(1-Acetylpiperidin-4-yl)ethoxy]methyl)-N-(3-methoxybenzyl)-4-oxo-3,4-dihydrothieno[2,3-d]pyrimidine-2-carboxamide]
1950 | 0.184 | COc1cccc(CNC(=O)c2nc3ccc(F)c(OCCC4CCN(C(C)=O)CC4)c3c(=O)[nH]2)c1 [Example 32, 5-[2-(1-acetylpiperidin-4-yl)ethoxy]-6-fluoro-N-(3-methoxybenzyl)-4-oxo-3,4-dihydroquinazoline-2-carboxamide]
9420 | 1.91 | COc1cccc(CNC(=O)c2nc3ccc(F)c(OCCC4CCNCC4)c3c(=O)[nH]2)c1 [Example 30, 6-fluoro-N-(3-methoxybenzyl)-4-oxo-5-(2-piperidin-4-ylethoxy)-3,4-dihydroquinazoline-2-carboxamide]
8580 | 16.4 | COc1cccc(CNC(=O)c2nc3ccc(F)c(OC[C@H]4CO[C@H](CO)CO4)c3c(=O)[nH]2)c1 (relative stereo) [Example 3, 6-Fluoro-5-{[(trans-2,5)-5-(hydroxymethyl)-1,4-dioxan-2-yl]methoxy}-N-(3-methoxybenzyl)-4-oxo-3,4-dihydroquinazoline-2-carboxamide]
– | 9.28 | COc1cccc(CNC(=O)c2nc3scc(COCCC4CCNCC4)c3c(=O)[nH]2)c1 [Example 26, N-(3-methoxybenzyl)-4-oxo-5-[(2-piperidin-4-ylethoxy)methyl]-3,4-dihydrothieno[2,3-d]pyrimidine-2-carboxamide hydrochloride]
– | 19.9 | COc1cccc(CNC(=O)c2nc3ccc(F)c(OC[C@@H]4CO[C@@H](CN)CO4)c3c(=O)[nH]2)c1 (relative stereo) [Example 36, 5-{[(trans 2,5)-5-(aminomethyl)-1,4-dioxan-2-yl]methoxy}-6-fluoro-N-(3-methoxybenzyl)-4-oxo-3,4-dihydroquinazoline-2-carboxamide]

Continued, compound first:

SMILES | Ki [1] [nM] | Ki [2] [nM]
COc1cccc(CNC(=O)c2nc3scc(COC[C@H]4CC[C@H](CNS(C)(=O)=O)CC4)c3c(=O)[nH]2)c1 [Example 25, N-(3-methoxybenzyl)-5-[({trans-4-[(methylsulfonyl)aminomethyl]cyclohexyl}methoxy)methyl]-4-oxo-3,4-dihydrothieno[2,3-d]pyrimidine-2-carboxamide] | 512 | 0.566
COc1cc(CNC(=O)c2nc3scc(COC[C@@H]4CO[C@@H](CO)CO4)c3c(=O)[nH]2)ccc1F (relative stereo) [Example 11, N-(4-Fluoro-3-methoxybenzyl)-5-(((trans-5-(hydroxymethyl)-1,4-dioxan-2-yl)methoxy)methyl)-4-oxo-3,4-dihydrothieno[2,3-d]pyrimidine-2-carboxamide] | 663 | 11
COc1cc(CNC(=O)c2nc3scc(COC[C@H]4CC[C@H](C#N)CC4)c3c(=O)[nH]2)ccc1F [Example 14, N-(4-Fluoro-3-methoxybenzyl)-5-(((trans-4-cyanocyclohexyl)methoxy)methyl)-4-oxo-3,4-dihydrothieno[2,3-d]pyrimidine-2-carboxamide] | 350 | 0.479
COc1cc(CNC(=O)c2nc3scc(COC[C@@H]4CO[C@@H](C(=O)O)CO4)c3c(=O)[nH]2)ccc1F (relative stereo) [Example 12, Trans-5-(((2-((4-Fluoro-3-methoxybenzyl)carbamoyl)-4-oxo-3,4-dihydrothieno[2,3-d]pyrimidin-5-yl)methoxy)methyl)-1,4-dioxane-2-carboxylic acid] | 668 | 1.62
COc1cccc(CNC(=O)c2nc3scc(COC[C@H]4CC[C@H](N)CC4)c3c(=O)[nH]2)c1 [Example 1, 5-({[trans-4-Aminocyclohexyl]methoxy}methyl)-N-(3-methoxybenzyl)-4-oxo-3,4-dihydrothieno[2,3-d]pyrimidine-2-carboxamide] | – | 13
